In BigSolDB 2.1:

COC(=O)[C@H]1[C@H]2C[C@@H]3c4[nH]c5cc(OC)ccc5c4CCN3C[C@H]2C[C@@H](OC(=O)c2cc(OC)c(OC)c(OC)c2)[C@@H]1OC
Details | solubility (mole fraction)
in PEG-400, 298.15 K | 0.00144
in PEG-400, 308.15 K | 0.00206
in PEG-400, 318.15 K | 0.00281
in PEG-400, 328.15 K | 0.00373
in PEG-400, 338.15 K | 0.0047

solubility (mole fraction)
Details | in ethanol | in ethyl acetate | in ethylene glycol | in isopropanol | in propylene glycol | in transcutol | in water
298.15 K | 9.16e-06 | 0.000521 | 5.3e-05 | 2.43e-05 | 2.88e-05 | 0.000769 | 9.71e-07
308.15 K | 1.25e-05 | 0.000608 | 7.04e-05 | 3.16e-05 | 3.38e-05 | 0.000906 | 1.25e-06
318.15 K | 1.59e-05 | 0.000723 | 9.28e-05 | 4.02e-05 | 4e-05 | 0.0011 | 1.57e-06
328.15 K | 2.07e-05 | 0.000868 | 0.000114 | 4.95e-05 | 4.63e-05 | 0.00137 | 1.9e-06
338.15 K | 2.53e-05 | 0.00104 | 0.000143 | 6.07e-05 | 5.5e-05 | 0.00161 | 2.25e-06
